{"source": "patent US20070066580A1", "about": "“Novel aldosterone antagonists and uses thereof” (Recordati Ireland Limited, priority 2005, published 2007)", "target": "T1, aldosterone receptor (Rattus norvegicus, UniProt P22199)", "T1 construct": "from tissue; host or cells: whole animal: adrenalectomised male Sprague-Dawley rats", "T1 sequence (P22199 1-981)": "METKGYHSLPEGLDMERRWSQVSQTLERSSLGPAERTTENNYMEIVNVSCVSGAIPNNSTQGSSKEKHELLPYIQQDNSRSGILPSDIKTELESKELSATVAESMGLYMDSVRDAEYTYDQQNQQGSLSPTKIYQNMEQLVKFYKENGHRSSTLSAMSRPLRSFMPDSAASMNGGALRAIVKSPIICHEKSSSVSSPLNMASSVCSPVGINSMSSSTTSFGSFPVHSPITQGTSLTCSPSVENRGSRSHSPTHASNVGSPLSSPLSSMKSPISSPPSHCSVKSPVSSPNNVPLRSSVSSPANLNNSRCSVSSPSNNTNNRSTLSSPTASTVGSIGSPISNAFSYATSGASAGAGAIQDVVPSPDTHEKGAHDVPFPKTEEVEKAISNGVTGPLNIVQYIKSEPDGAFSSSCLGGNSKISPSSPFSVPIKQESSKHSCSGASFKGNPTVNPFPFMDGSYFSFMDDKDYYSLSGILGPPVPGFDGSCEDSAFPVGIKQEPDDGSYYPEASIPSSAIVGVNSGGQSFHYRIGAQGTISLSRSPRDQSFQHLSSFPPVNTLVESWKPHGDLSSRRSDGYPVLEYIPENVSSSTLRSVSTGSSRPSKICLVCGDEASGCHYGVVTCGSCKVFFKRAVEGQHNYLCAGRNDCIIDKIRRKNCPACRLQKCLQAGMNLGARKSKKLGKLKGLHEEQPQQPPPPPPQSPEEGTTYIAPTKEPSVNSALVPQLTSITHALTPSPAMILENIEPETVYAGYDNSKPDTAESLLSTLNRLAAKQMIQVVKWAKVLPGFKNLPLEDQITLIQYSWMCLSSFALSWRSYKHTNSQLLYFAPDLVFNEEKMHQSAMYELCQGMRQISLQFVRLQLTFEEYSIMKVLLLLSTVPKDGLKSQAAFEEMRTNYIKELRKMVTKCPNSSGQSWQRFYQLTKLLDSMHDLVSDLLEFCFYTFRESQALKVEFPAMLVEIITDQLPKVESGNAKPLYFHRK", "test": "Kagawa model, urinary Na+/K+ ratio in adrenalectomised rats given aldosterone", "assay_type": "in vivo", "details": "adrenalectomized rats, oral gavage, aldosterone 3 μg/animal s.c.", "excerpt": "To evaluate the in vivo activity of test compounds as aldosterone receptor antagonists, the Kagawa model was used, with some modifications. The original model first described by Kagawa (Endocrinology 1960; 67:125-131) has been widely utilised and reported in several published papers.\nBilateral adrenalectomised male Spague-Dawley rats aging approximately 5 weeks and weighing between 150 and 170 g at the time of surgery were obtained from Charles River (UK) Ltd., Margate, Kent. Following adrenalectomy, animals were maintained with standard diet and 0.9% (w/v) saline to drink. Saline replaces sodium ions lost due to the absence of the adrenal glands.\nThe animals were maintained for three days in standard condition and were trained in metabolic cages on one occasion prior to the test day for approximately 5 hours.\nFood was withheld from animals overnight prior to dosing. Saline was available ad libitum.\nApproximately 2 hours before dosing, saline was removed from the animals to ensure similar hydration levels. […]\nThe cumulative urine volume was measured and collected for analysis at 0-3 and 3-6 hours post-aldosterone. Urine was analysed for urinary sodium and potassium concentration. […]\nMean Na^+:K^+ ratios from each group were calculated. […]\nThe data were analysed using one-way Analysis of Variance (ANOVA). […]"}
{"smiles": "CCS[C@@H]1CC2=CC(=O)CC[C@]2(C)C2=CC[C@@]3(C)C(CC[C@@]34CCC(=O)O4)C21", "note": "(stereo partly shown) [Example 13]", "values": [{"measurement": "urinary Na+/K+ ratio relative to animals only receiving aldosterone", "value": "statistically significant increase"}]}
